pIC50: −log10 of the molar value.
Key:
Assay type in all cases: functional, cell-based
[1] = system: HT-29; assay: Cytotoxicity against human HT-29 cells
[2] = system: A549; assay: Cytotoxicity against human A549 cells
[3] = system: P388; assay: Cytotoxicity against mouse P388 cells

SMILES | pIC50 [1] | pIC50 [2] | pIC50 [3]
COc1cc([C@@H]2c3cc4c(cc3C=C3COC(=O)[C@H]32)OCO4)cc(OC)c1OC | 7.60 | 7.60 | 7.89
COc1cc([C@@H]2c3cc4c(cc3[C@H](O)[C@H]3COC(=O)[C@H]23)OCO4)cc(OC)c1OC [PODOFILOX] | 8.54 | – | –
COc1cc([C@@H]2c3cc4c(cc3[C@@H](OC)[C@@H](COC(C)=O)[C@@H]2COC(C)=O)OCO4)cc(OC)c1OC | 5.01 | 5.01 | 5.01
COc1cc([C@@H]2c3cc4c(cc3[C@H](OC)[C@H]3COC(=O)[C@H]23)OCO4)cc(OC)c1OC | 7.22 | 7.22 | 7.22
COc1cc([C@@H]2c3cc4c(cc3[C@@H](OC)[C@H]3COC(=O)[C@@H]23)OCO4)cc(OC)c1OC | 7.22 | 6.89 | 7.00
COc1cc([C@@H]2c3cc4c(cc3[C@@H](Cl)[C@H]3COC(=O)[C@H]23)OCO4)cc(OC)c1OC | 5.92 | 6.22 | 6.22
COc1cc([C@@H]2c3cc4c(cc3[C@H](O)[C@H]3COC(=O)[C@@H]23)OCO4)cc(OC)c1OC [AXL-1717] | 5.22 | 5.22 | 5.22
COc1cc([C@@H]2c3cc4c(cc3[C@H](OC)[C@@H](CO)[C@H]2CO)OCO4)cc(OC)c1OC | 4.63 | 4.33 | 4.63
COc1cc([C@@H]2c3cc4c(cc3[C@H](OC)[C@@H](COC(C)=O)[C@@H]2COC(C)=O)OCO4)cc(OC)c1OC | 5.01 | 5.01 | 5.01
COc1cc([C@@H]2c3cc4c(cc3[C@@H](OC)[C@@H](CO)[C@@H]2CO)OCO4)cc(OC)c1OC | 4.94 | 4.94 | 4.94
COc1cc([C@@H]2c3cc4c(cc3[C@@H](OC)[C@@H](CO)[C@H]2CO)OCO4)cc(OC)c1OC | 4.94 | 4.94 | 4.94
COc1cc([C@@H]2c3cc4c(cc3[C@H](OC)[C@@H](COC(C)=O)[C@H]2COC(C)=O)OCO4)cc(OC)c1OC | 4.71 | < 4.41 | 4.71
COc1cc([C@@H]2c3cc4c(cc3[C@@H](OC)[C@H]3COC(=O)[C@H]23)OCO4)cc(OC)c1OC | 5.92 | 7.22 | 7.22
COc1cc([C@@H]2c3cc4c(cc3[C@@H](OC)[C@@H](COC(C)=O)[C@H]2COC(C)=O)OCO4)cc(OC)c1OC | 5.01 | 5.01 | 5.01
COc1cc([C@@H]2c3cc4c(cc3[C@H](OC)[C@H]3COC(=O)[C@@H]23)OCO4)cc(OC)c1OC | 6.64 | 6.92 | 6.92
COc1cc([C@@H]2c3cc4c(cc3[C@@H](O)[C@H]3COC(=O)[C@H]23)OCO4)cc(OC)c1OC [EPIPODOPHYLLOTOXIN] | 7.22 | 7.22 | 7.22
